Read-outs that look alike come from different tables or passages of the source.
Key:
[1] = system: adenosinedeaminase; conditions: cited from earlier work
[2] = Plating efficiency of stationary-phase HA-1 cells given enhancer immediately after 1,000 R X-ray (inhibition of PLDR); format: cell-based, Chinese hamster; conditions: chinese hamster, ha-1 cells, no irradiation, control 66, read-out: Plating efficiency, treated only with enhancer (after 9 hours)
Method: (§2) (1) Cells under stationary phase, prepared by planting 2×10^5 cells/well of Chinese hamster-HA-1 cells in a multiwell dish and exchanging cultural medium every day starting on the third day and thereafter were irradiated with 1,000 R of X-rays. Immediately after radiation, 3'-dUrd, and 3'-dGuo in HANKs' balanced salt solution were administered. Then, after elapse of various times, the cells were taken off with trypsin, and a suitable number of cells were transferred into petri dishes for testing colony forming ability and plating efficiencies. The percentages of survival were calculated with corrections by the plating efficiencies with the pharmaceutical agents alone.

[3] = system: Chinese hamster-HA-1 cells; test: as above; format: cell-based; conditions: for Plating efficiency after 3 hours: control 1.8; for Plating efficiency after 6 hours: control 2.4; for Plating efficiency after 9 hours: control 3.8
Method: as §2

[4] = Survival percent of stationary-phase HA-1 cells treated with enhancer 30 minutes before X-ray irradiation; format: cell-based, Chinese hamster; conditions: ha-1 cells, no irradiation, control 90, read-out: Plating efficiency of the group not irradiated with X-Rays
Method: (§1) (2) HA-1 cells under stationary phase prepared similarly as in (1), were irradiated with various doses (200 to 800 R) of X-rays for examination of effects of the enhancer on plating efficiencies of the cells. The treatment with the enhancer was conducted 30 minutes before irradiation. Measurement of plating efficiencies was carried out for the cells immediately after irradiation with X-rays.

[5] = system: HA-1 cells; test: as above; format: cell-based, Chinese hamster
Method: as §1

[6] = system: EMT-6 tumors; test: Radiosensitizing effect on EMT-6 tumor in mouse, 1500 rad, tumor size and cure; format: in vivo, BALB/c-strain female mice
[7] = system: potentially lethal damage repair; test: PLDR-inhibiting / radiosensitizing activity (general statements)
[8] = system: EMT-6 tumors; test: Enhancement of the effect of anti-tumor agents on EMT-6 tumor in mouse; format: in vivo, BALB/c-strain mice; conditions: for Mean tumor diameter 7 days after commencement of treatment: control 7.38; for Mean tumor diameter 14 days after commencement of treatment: control 9.20; for Mean tumor diameter ratio 7 days after commencement of treatment: control 1.27; for Mean tumor diameter ratio 14 days after commencement of treatment: control 1.57
Method: (1) EMT-6 tumor cells (1×10^6) were inoculated intradermally into the right thighs of BALB/c-strain mice (7 weeks old). On the 10th day after inoculation of the tumor cells and thereafter, various enhancer chemicals in physiological saline solutions were administered intrapenitoneally to the mouse every other day in the indicated doses for respective agents. The pharmaceutical agents of the present invention were administered 30 minutes after administration of the anti-tumor agents. After commencement of the treatment with pharmaceutical agents, the tumor sizes were measured every other day and compared with the control group.

[9] = 3'-dUrd 150 μg/ml after 1,000 R
[10] = 3'-dUrd 300 μg/ml after 1,000 R
[11] = 3'-dUrd 600 μg/ml after 1,000 R
[12] = 3'-dUrd 0.8 mg/mouse + irradiation 1500 rad, irradiation alone 0%
[13] = 3'-dUrd 0.8 mg/mouse + irradiation 1500 rad, irradiation alone 0/10
[14] = ACNU alone 25 mg/kg × 5, n = 7, before treatment 6.23 ± 0.76
[15] = ADM alone 2 mg/kg × 8, n = 10, before treatment 6.72 ± 1.00
[16] = araC alone 50 mg/kg × 8, n = 7, before treatment 6.11 ± 0.78

In the case of `OC[C@H]1O[C@@H](n2cnc3c2N=CNC[C@H]3O)C[C@@H]1O` [2'-deoxycoformycin], the Inhibition of adenosinedeaminase [1] is given as “inhibitor against adenosinedeaminase”.

Compound `O=c1ccn([C@@H]2O[C@H](CO)C[C@H]2O)c(=O)[nH]1` [3'-dUrd, 3'-deoxyuridine] has a viability at 9 h ([2]; 3'-dUrd 150 μg/ml) of 65%, a viability at 9 h ([2]; 3'-dUrd 300 μg/ml) of 60% and a viability at 9 h ([2]; 3'-dUrd 600 μg/ml) of 58%. The “Plating efficiency after 3 hours” value [3, 9] was 1.6%, the “Plating efficiency after 6 hours” value [3, 9] was 2.2% and the “Plating efficiency after 9 hours” value [3, 9] was 3.5%. For the same compound, the “Plating efficiency after 3 hours” value [3, 10] was 1.2%, the “Plating efficiency after 6 hours” value [3, 10] was 1.9% and the “Plating efficiency after 9 hours” value [3, 10] was 3.1%. For the same compound, the “Plating efficiency after 3 hours” value [3, 11] was 0.9%, the “Plating efficiency after 6 hours” value [3, 11] was 1.6% and the “Plating efficiency after 9 hours” value [3, 11] was 2.6%. For the same compound, the “Inhibition of repair (PLDR) after irradiation with X-rays” value ([3]; HA-1 cells, Table 1) was “found to inhibit repair (PLDR) after irradiation with X-rays”, the “Toxicity as examined by plating efficiencies” value ([3]; HA-1 cells, Table 1) was “Substantially no toxicity was observed” and the viability ([4]; 100 μg/ml) was 85%. For the same compound, the viability ([4]; 200 μg/ml) was 87%, the viability ([4]; 400 μg/ml) was 85% and the viability ([4]; 800 μg/ml) was 80%. For the same compound, the “Survival percent of the group irradiated with X-Rays” value (“Survival percent” below) ([5]; 100 μg/ml, 200R, control 88) was 45%, the “Survival percent” value ([5]; 100 μg/ml, 400R, control 27) was 19% and the “Survival percent” value ([5]; 100 μg/ml, 600R, control 5.9) was 5.2%. The “Survival percent” value ([5]; 100 μg/ml, 800R, control 1.9) was 1.8%, the “Survival percent” value ([5]; 200 μg/ml, 200R, control 88) was 39% and the “Survival percent” value ([5]; 200 μg/ml, 400R, control 27) was 15%. The “Survival percent” value ([5]; 200 μg/ml, 600R, control 5.9) was 4.9%, the “Survival percent” value ([5]; 200 μg/ml, 800R, control 1.9) was 1.8% and the “Survival percent” value ([5]; 400 μg/ml, 200R, control 88) was 30%. The “Survival percent” value ([5]; 400 μg/ml, 400R, control 27) was 13%, the “Survival percent” value ([5]; 400 μg/ml, 600R, control 5.9) was 3.8% and the “Survival percent” value ([5]; 400 μg/ml, 800R, control 1.9) was 1.2%. For the same compound, the “Survival percent” value ([5]; 800 μg/ml, 200R, control 88) was 29%, the “Survival percent” value ([5]; 800 μg/ml, 400R, control 27) was 13% and the “Survival percent” value ([5]; 800 μg/ml, 600R, control 5.9) was 3.8%. For the same compound, the “Survival percent” value ([5]; 800 μg/ml, 800R, control 1.9) was 1.0%, the “Sensitizing effect under X-ray irradiation” value ([5]; HA-1 cells, Table 2) was “found to exhibit sensitizing effect especially with low dosage of irradiation with X-rays” and the “Cure (number of mice)” value ([6]; 3'-dUrd 0.8 mg/mouse + irradiation 1500 rad, 28 days, irradiation alone 1/10) was 3/7. For the same compound, the “Cure (percent)” value ([6]; 3'-dUrd 0.8 mg/mouse + irradiation 1500 rad, 28 days, irradiation alone 10%) was 43%, the “0.5 to less than 1 of volume ratio excluding cure; Tumor regression rate: slow (percent)” value [6, 12] was 0% and the “Less than 0.5 of volume ratio excluding cure; Tumor regression rate: rapid (percent)” value [6, 12] was 14%. The “0.5 to less than 1 of volume ratio excluding cure; Tumor regression rate: slow (number)” value [6, 13] was 0/7, the “Less than 0.5 of volume ratio excluding cure; Tumor regression rate: rapid (number)” value [6, 13] was 1/7 and the “1.0 to less than 2.0 of volume ratio excluding cure; regrowth: slow (number)” value ([6]; 3'-dUrd 0.8 mg/mouse + irradiation 1500 rad, irradiation alone 3/10) was 2/7. The “2.0 or more of volume ratio excluding cure; regrowth: rapid (number)” value ([6]; 3'-dUrd 0.8 mg/mouse + irradiation 1500 rad, irradiation alone 6/10) was 1/7, the “1.0 to less than 2.0 of volume ratio excluding cure; regrowth: slow (percent)” value ([6]; 3'-dUrd 0.8 mg/mouse + irradiation 1500 rad, irradiation alone 30%) was 29% and the “2.0 or more of volume ratio excluding cure; regrowth: rapid (percent)” value ([6]; 3'-dUrd 0.8 mg/mouse + irradiation 1500 rad, irradiation alone 60%) was 14%. The “Mean tumor diameter 2 weeks after treatment” value ([6]; 3'-dUrd 40 mg/kg i.p. 30 min before 1500 rad, n = 7, baseline 6.00 ± 0.41 mm, irradiation alone 7.41) was 6.31 ± 0.97 mm, the “Mean tumor diameter 3 weeks after treatment” value ([6]; 3'-dUrd 40 mg/kg i.p. 30 min before 1500 rad, n = 7, baseline 6.00 ± 0.41 mm, irradiation alone 8.29) was 4.29 ± 1.73 mm and the “Diameter ratio 2 weeks after treatment” value ([6]; 3'-dUrd 40 mg/kg i.p. 30 min before 1500 rad, n = 7, irradiation alone 1.09) was 1.06 ± 0.15. The “Diameter ratio 3 weeks after treatment” value ([6]; 3'-dUrd 40 mg/kg i.p. 30 min before 1500 rad, n = 7, irradiation alone 1.17) was 0.66 ± 0.25, the “Volume ratio 2 weeks after treatment” value ([6]; 3'-dUrd 40 mg/kg i.p. 30 min before 1500 rad, n = 7, irradiation alone 1.44) was 1.63 ± 0.44 and the “Volume ratio 3 weeks after treatment” value ([6]; 3'-dUrd 40 mg/kg i.p. 30 min before 1500 rad, n = 7, irradiation alone 2.06) was 1.21 ± 0.60. For the same compound, the Radiosensitizing activity [7] was “excellent radiosensitizing activities”.

For `Cc1ncc(CNC(=O)N(CCCl)N=O)c(N)n1` [ACNU, reference compound], the “Mean tumor diameter 7 days after commencement of treatment” value (shortened to “Mean tumor diameter 7 days”) [8, 14] was 5.51 ± 1.91 mm, the “Mean tumor diameter 14 days after commencement of treatment” value (“Mean tumor diameter 14 days” below) [8, 14] was 6.54 ± 1.82 mm and the “Mean tumor diameter ratio 7 days after commencement of treatment” value (shortened to “Mean tumor diameter ratio 7 days”) ([8]; ACNU alone 25 mg/kg × 5, n = 7) was 0.87 ± 0.21. For the same compound, the “Mean tumor diameter ratio 14 days after commencement of treatment” value (from here on “Mean tumor diameter ratio 14 days”) ([8]; ACNU alone 25 mg/kg × 5, n = 7) was 1.06 ± 0.29.

For `COc1cccc2c1C(=O)c1c(O)c3c(c(O)c1C2=O)C[C@@](O)(C(=O)CO)C[C@@H]3O[C@H]1C[C@H](N)[C@H](O)[C@H](C)O1` [ADM, Adriamycin, reference compound], the “Mean tumor diameter 7 days” value [8, 15] was 7.67 ± 1.30 mm, the “Mean tumor diameter 14 days” value [8, 15] was 9.04 ± 1.77 mm and the “Mean tumor diameter ratio 7 days” value ([8]; ADM alone 2 mg/kg × 8, n = 10) was 1.17 ± 0.29. The “Mean tumor diameter ratio 14 days” value ([8]; ADM alone 2 mg/kg × 8, n = 10) was 1.38 ± 0.36.

With `O=c1[nH]c(=O)n(C2CCCO2)cc1F` (stereo not drawn) [FT-207, 1-(2-tetrahydrofuryl)-5-fluorouracil, reference compound] the “Mean tumor diameter 18 days after commencement of treatment” value ([8]; FT-207 alone 100 mg/kg × 6, n = 9, before treatment 6.96 ± 1.43, control 11.43) was 8.37 ± 2.12 mm and the “Mean tumor diameter ratio 18 days after commencement of treatment” value ([8]; FT-207 alone 100 mg/kg × 6, n = 9, control 1.97) was 1.20 ± 0.31.

For `Nc1ccn([C@@H]2O[C@H](CO)[C@@H](O)[C@@H]2O)c(=O)n1` [araC, 1-β-D-arabinofuranosylcytosine, reference compound], the “Mean tumor diameter 7 days” value [8, 16] was 7.11 ± 1.48 mm, the “Mean tumor diameter 14 days” value [8, 16] was 8.07 ± 2.62 mm and the “Mean tumor diameter ratio 7 days” value ([8]; araC alone 50 mg/kg × 8, n = 7) was 1.16 ± 0.18. The “Mean tumor diameter ratio 14 days” value ([8]; araC alone 50 mg/kg × 8, n = 7) was 1.38 ± 0.46.

For Bleomycin [BLM, reference compound], the “Mean tumor diameter 18 days after commencement of treatment” value ([8]; BLM alone 25 mg/kg × 4, n = 10, before treatment 6.12 ± 1.17, control 11.43 ± 2.30) was 9.77 ± 2.50 mm and the “Mean tumor diameter ratio 18 days after commencement of treatment” value ([8]; BLM alone 25 mg/kg × 4, n = 10, control 1.97 ± 0.40) was 1.60 ± 0.41.
